According to patent US10294202B2, “Pyrrolidinones as herbicides” (FMC Corporation, priority 2013, dated 2019):
Several values for one entry are separate records, joined by “and”; a condition that tells them apart may be missing. Equal entries are not always repeated.

Assays:
soybean (GLXMA) = assay: Test H preemergence mixture test (Colby); format: in vivo, Glycine max; settings: applied alone, 21 d, mean of three replicates, scale 0-100
Source text: (§1) Colby's Equation was used to determine the herbicidal effects expected from the mixtures. Colby's Equation (Colby, S. R. “Calculating Synergistic and Antagonistic Responses of Herbicide Combinations,” Weeds, 15(1), pp 20-22 (1967)) calculates the expected additive effect of herbicidal mixtures and for two active ingredients is of the form: Pa+b=Pa+Pb−(PaPb/100)
(§2) where • Pa+b is the percentage effect of the mixture expected from additive contribution of the individual components: • Pa is the observed percentage effect of the first active ingredient at the same use rate as in the mixture, and • Pb is the observed percentage effect of the second active ingredient at the same use rate as in the mixture. In the following Tables, rates are shown in grams of active ingredient per hectare (g a.i./ha); “Obsd.” is the observed effect. “Exp.” is the expected effect calculated from Colby's Equation.
(§3) This test evaluated the effect of mixtures of compound 80 with several commercial herbicides on four plant species. Seeds of plant species selected from corn (ZEAMD, Zea mays), soybean (GLXMA, Glycine max), waterhemp (common waterhemp, AMATA, Amaranthus rudis), and giant foxtail (SETFA, Setaria faberii) were planted into a silt loam soil and treated preemergence with test chemicals formulated in a non-phytotoxic solvent mixture which included a surfactant and applied using a volume of 281 L/ha. Each treatment was replicated three times. Treated plants and controls were maintained in a greenhouse using supplemental lighting to maintain a photoperiod of about 16 h; daytime and nighttime temperatures were about 24-30° C. and 19-21° C., respectively. Nutrients were applied using a balanced fertilizer applied through the watering system. At 21 d after treatment, all species were compared to controls and visually evaluated. Plant response ratings were calculated as the means of the three replicates, are summarized in Tables H1 through H5, and are based on a scale of 0 to 100 where 0 is no effect and 100 is complete control. A dash (-) response means no test result. The Expected (Exp.) results were calculated using Colby's Equation as described for Test G above.

giant foxtail (SETFA) = assay: Test H preemergence mixture test (Colby); format: in vivo, Setaria faberii; settings: applied alone, 21 d, mean of three replicates, scale 0-100
Source text: as §1, §2, §3

corn (ZEAMD) = assay: Test H preemergence mixture test (Colby); format: in vivo, Zea mays; settings: applied alone, 21 d, mean of three replicates, scale 0-100
Source text: as §1, §2, §3

waterhemp (AMATA) = assay: Test H preemergence mixture test (Colby); format: in vivo, Amaranthus rudis; settings: applied alone, 21 d, mean of three replicates, scale 0-100
Source text: as §1, §2, §3

ducksalad (HETLI) = assay: Test G paddy mixture test (Colby); format: in vivo, Heteranthera limosa; settings: applied alone, 20 g a.i./ha; 14 d; scale 0-100
Description: (§4) Seeds of small-flower umbrella […], Cyperus difformis) and […], Heteranthera limosa) were sown on the soil surface in two separate quadrants of 11-cm (4-inch) tubs filled with steam pasteurized Tama soil. Simultaneously, plantings of […], Echinochloa crus-galli) and transplanted japonica rice (ORYSA, Oryza sativa) were established in separate “plug” flats. […] Herbicide application timing was targeted at the 2.0 to 2.5 leaf stage and the plants were treated with test chemicals formulated in a non-phytotoxic solvent. Treated plants and controls were maintained in a greenhouse for 14 d, after which time all species were compared to controls and visually evaluated. Plant response ratings are summarized in Tables G1 through G12, and are based on a scale of 0 to 100 where 0 is no effect and 100 is complete control. A dash (-) response means no test result. Colby's Equation was used to determine the herbicidal effects expected from the mixtures. […] “Exp.” is the expected effect calculated from Colby's Equation.

[1] = test system: small-flower umbrella sedge (CYPDI); assay: Test G paddy mixture test (Colby); format: in vivo, Cyperus difformis; settings: applied alone, 20 g a.i./ha; 14 d; scale 0-100
Description: as §4

barnyardgrass (ECHCG) = assay: Test G paddy mixture test (Colby); format: in vivo, Echinochloa crus-galli; settings: applied alone, 20 g a.i./ha; 14 d; scale 0-100
Description: as §4

SMILES	GLXMA Obsd. (soybean (GLXMA); 1 g a.i./ha)	GLXMA Obsd. (soybean (GLXMA); 31 g a.i./ha)	SETFA Obsd. (giant foxtail (SETFA); 1 g a.i./ha)	SETFA Obsd. (giant foxtail (SETFA); 31 g a.i./ha)	ZEAMD Obsd. (corn (ZEAMD); 1 g a.i./ha)	ZEAMD Obsd. (corn (ZEAMD); 31 g a.i./ha)	AMATA Obsd. (waterhemp (AMATA); 1 g a.i./ha)	AMATA Obsd. (waterhemp (AMATA); 31 g a.i./ha)	GLXMA Obsd. (soybean (GLXMA); 125 g a.i./ha)	SETFA Obsd. (giant foxtail (SETFA); 125 g a.i./ha)	ZEAMD Obsd. (corn (ZEAMD); 125 g a.i./ha)	AMATA Obsd. (waterhemp (AMATA); 125 g a.i./ha)	HETLI Obsd. (ducksalad (HETLI))	CYPDI Obsd. [1]	ECHCG Obsd. (barnyardgrass (ECHCG))	GLXMA Obsd. (soybean (GLXMA); 62 g a.i./ha)	SETFA Obsd. (giant foxtail (SETFA); 62 g a.i./ha)	ZEAMD Obsd. (corn (ZEAMD); 62 g a.i./ha)	AMATA Obsd. (waterhemp (AMATA); 62 g a.i./ha)
CCOC(=O)c1ccccc1S(=O)(=O)NC(=O)Nc1nc(Cl)cc(OC)n1 [Chlorimuron-ethyl]	0	22	0	47	22	73	47	89											
CCc1cccc(C)c1N(C(=O)CCl)[C@@H](C)COC [S-metolachlor]		18		73		13		0	15	99	20	85							
COC(=O)c1ccccc1CS(=O)(=O)NC(=O)Nc1nc(OC)cc(OC)n1 [Bensulfuron-methyl]													100	100 and 98	65				
CCNc1nc(Cl)nc(NC(C)C)n1 [Atrazine]									48	8	0	90				13	0	0	33
CC(C)N(C)S(=O)(=O)NC(=O)c1cc(-n2c(=O)cc(C(F)(F)F)n(C)c2=O)c(F)cc1Cl [Saflufenacil]	0	13	0	23	20	0	0	83											
